This assay concerns P388 leukemia ip, CD2F1 mice, survival T/C. The experiment in a line: NCI In Vivo Anticancer Drug Screen. Data for tumor model P388 Leukemia (intraperitoneal) in CD2F1 (CDF1) mice. The settings on record: endpoint: median survival time, higher = longer survival. An outline of the steps: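 Mice carrying the transplanted tumor received test compound or vehicle. Survival was recorded in each group, and the value is the treated-group measurement divided by that of the vehicle-treated control group.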

The mark [1] stands for this setting: dose: 60.0 mg/kg/injection, schedule: Q01DX005 (ip), vehicle: saline with Tween-80.
Where [2] appears, read: dose: 120.0 mg/kg/injection, schedule: Q01DX005 (ip), vehicle: saline with Tween-80.
Where [3] appears, read: dose: 240.0 mg/kg/injection, schedule: Q01DX005 (ip), vehicle: saline with Tween-80.
[4] abbreviates: dose: 6.25 mg/kg/injection, schedule: Q01DX009 (ip), vehicle: saline with Tween-80.
[5] abbreviates: dose: 12.5 mg/kg/injection, schedule: Q01DX009 (ip), vehicle: saline with Tween-80.
Where [6] appears, read: dose: 25.0 mg/kg/injection, schedule: Q01DX009 (ip), vehicle: saline with Tween-80.
Where [7] appears, read: dose: 100.0 mg/kg/injection, schedule: Q01DX009 (ip), vehicle: saline with Tween-80.
The mark [8] stands for this setting: dose: 50.0 mg/kg/injection, schedule: Q01DX009 (ip), vehicle: saline with Tween-80.
Where [9] appears, read: dose: 200.0 mg/kg/injection, schedule: Q01DX009 (ip), vehicle: saline with Tween-80.
The mark [10] stands for this setting: dose: 50.0 mg/kg/injection, schedule: Q01DX009 (ip), vehicle: saline.

These results are taken from PubChem BioAssay AID330 (DTP/NCI, 2004).

“And” between values parts separate entries of the source, which are not always exact repeats. Equal entries are not always repeated. Inconclusive results and toxic doses are left out.

With `CC1(C)OC2OC(C3COS(=O)O3)C(Cl)C2O1` (stereo unspecified), the T/C was 107 % of control under setting [1], 113 % of control under setting [2] and 114 % of control under setting [3].
`O=C1NC(=O)C2C1C1C3OC3C2C2C3C(=O)NC(=O)C3C12` (stereo unspecified): the T/C is 102 % of control under setting [4], 116 % of control under setting [5], 110 % of control under setting [6] and 168 % of control under setting [7].
With `CCOC(=O)C1=CNN=CC12C(=O)C(C(=O)OCC)CC2C(=O)OCC` (stereo unspecified), the T/C by setting is: (dose: 100.0 mg/kg/injection, schedule: Q04DX002 (ip), vehicle: saline with Tween-80) 96 % of control; (dose: 200.0 mg/kg/injection, schedule: Q04DX002 (ip), vehicle: saline with Tween-80) 93 % of control; (dose: 400.0 mg/kg/injection, schedule: Q04DX002 (ip), vehicle: saline with Tween-80) 92 % of control.
`O=C(/C=C/c1ccc(Cl)cc1)/C=C/c1ccc(Cl)cc1`: the T/C is 91 % of control under setting [8], 86 % of control under setting [7] and 93 % of control under setting [9].
Regarding `CCOC(=O)c1cc(Cl)cc2c(=O)c3c(O)c4[nH]c5c(C(=O)OCC)cc(Cl)cc5c(=O)c4c(O)c3[nH]c12`, the T/C (dose: 50.0 mg/kg/injection, schedule: Q01DX009 (ip), vehicle: Klucel (hydroxypropylcellulose) (HPC)) was 97 % of control and the T/C (dose: 100.0 mg/kg/injection, schedule: Q01DX009 (ip), vehicle: Klucel (hydroxypropylcellulose) (HPC)) is 106 % of control.
For the compound `CCOP(=O)(Nc1ccc2c(c1)C(=O)c1ccccc1-2)OCC`, the T/C is, setting by setting: (dose: 50.0 mg/kg/injection, schedule: Q01DX005 (ip), vehicle: Klucel (hydroxypropylcellulose) (HPC)) 102 % of control; (dose: 100.0 mg/kg/injection, schedule: Q01DX005 (ip), vehicle: Klucel (hydroxypropylcellulose) (HPC)) 96 % of control; (dose: 200.0 mg/kg/injection, schedule: Q01DX005 (ip), vehicle: Klucel (hydroxypropylcellulose) (HPC)) 96 % of control.
With `Cc1cc(C(=O)NN)no1`, the T/C is 99 % of control under setting [10] and 100 % of control (dose: 100.0 mg/kg/injection, schedule: Q01DX009 (ip), vehicle: saline).
In the case of `O=C(Nc1cccc(Cl)c1)Nc1ccc[nH]c1=O`, the T/C by setting is: under setting [8], 101 % of control; under setting [7], 109 % of control; under setting [9], 109 % of control.
For `CCCCCC(CN(C)C)C(=O)CC(SCC)c1ccc(Cl)c(Cl)c1` (stereo unspecified), the T/C is, setting by setting: (dose: 6.25 mg/kg/injection, schedule: Q01DX009 (ip), vehicle: water) 102 % of control and 113 % of control; (dose: 12.5 mg/kg/injection, schedule: Q01DX009 (ip), vehicle: water) 107 % of control and 109 % of control and 111 % of control; (dose: 25.0 mg/kg/injection, schedule: Q01DX009 (ip), vehicle: water) 107 % of control and 120 % of control and 95 % of control; (dose: 50.0 mg/kg/injection, schedule: Q01DX009 (ip), vehicle: water) 101 % of control and 112 % of control and 115 % of control; (dose: 100.0 mg/kg/injection, schedule: Q01DX009 (ip), vehicle: water) 108 % of control.
As to `O=[N+]([O-])c1cccc(SNSc2cccc([N+](=O)[O-])c2)c1`, the T/C reads like this: (dose: 100.0 mg/kg/injection, schedule: Q04DX002 (ip), vehicle: Klucel (hydroxypropylcellulose) (HPC)) 90 % of control; (dose: 200.0 mg/kg/injection, schedule: Q04DX002 (ip), vehicle: Klucel (hydroxypropylcellulose) (HPC)) 88 % of control; (dose: 400.0 mg/kg/injection, schedule: Q04DX002 (ip), vehicle: Klucel (hydroxypropylcellulose) (HPC)) 94 % of control.
Turning to `Cc1nc(C(=O)O)c(C(=O)O)[nH]1`, the T/C was 90 % of control (dose: 100.0 mg/kg/injection, schedule: Q01DX009 (ip), vehicle: saline sonified) and 100 % of control (dose: 200.0 mg/kg/injection, schedule: Q01DX009 (ip), vehicle: saline sonified).
As for `CC1(C)N=C(N)N=C(N)N1c1ccc(CCCCc2cccc(S(=O)(=O)F)c2)c(Cl)c1`, the T/C is 107 % of control (dose: 0.11 mg/kg/injection, schedule: Q01DX009 (ip), vehicle: saline with Tween-80); 111 % of control (dose: 0.17 mg/kg/injection, schedule: Q01DX009 (ip), vehicle: saline with Tween-80); 115 % of control (dose: 0.25 mg/kg/injection, schedule: Q01DX009 (ip), vehicle: saline with Tween-80); 107 % of control (dose: 0.66 mg/kg/injection, schedule: Q01DX009 (ip), vehicle: saline with Tween-80); 109 % of control (dose: 1.0 mg/kg/injection, schedule: Q01DX009 (ip), vehicle: saline with Tween-80); 160 % of control (dose: 3.3 mg/kg/injection, schedule: Q01DX009 (ip), vehicle: saline with Tween-80). For the same compound, the T/C by setting is: (dose: 5.0 mg/kg/injection, schedule: Q01DX009 (ip), vehicle: saline with Tween-80) 150 % of control; under setting [4], 150 % of control; (dose: 7.5 mg/kg/injection, schedule: Q01DX009 (ip), vehicle: saline with Tween-80) 155 % of control; (dose: 8.0 mg/kg/injection, schedule: Q01DX009 (ip), vehicle: saline with Tween-80) 154 % of control; (dose: 8.0 mg/kg/injection, schedule: Q01DX009 (ip), vehicle: saline) 157 % of control; (dose: 12.0 mg/kg/injection, schedule: Q01DX009 (ip), vehicle: saline with Tween-80) 163 % of control. The T/C is 154 % of control (dose: 12.0 mg/kg/injection, schedule: Q01DX009 (ip), vehicle: saline); 150 % of control under setting [5]; 150 % of control (dose: 18.0 mg/kg/injection, schedule: Q01DX009 (ip), vehicle: saline with Tween-80); 181 % of control (dose: 18.0 mg/kg/injection, schedule: Q01DX009 (ip), vehicle: saline); 95 % of control under setting [6]; 150 % of control (dose: 27.0 mg/kg/injection, schedule: Q01DX009 (ip), vehicle: saline with Tween-80).
In the case of `O=C(O)c1cc2ccc(Cl)cc2[se]1`, the T/C is 89 % of control (dose: 12.5 mg/kg/injection, schedule: Q01DX009 (ip), vehicle: saline); 105 % of control (dose: 25.0 mg/kg/injection, schedule: Q01DX009 (ip), vehicle: saline); 106 % of control and 88 % of control under setting [10]; 91 % of control (dose: 200.0 mg/kg/injection, schedule: Q01DX009 (ip), vehicle: saline).
As to `Nc1nc2c(c(=O)[nH]1)N(C=O)C(CNc1ccc(C(=O)N[C@@H](CCC(=O)O)C(=O)O)cc1)CN2` (stereo partly specified), the T/C was 108 % of control (dose: 125.0 mg/kg/injection, schedule: Q04DX003 (ip), vehicle: saline); 99 % of control (dose: 250.0 mg/kg/injection, schedule: Q04DX003 (ip), vehicle: saline); 99 % of control (dose: 500.0 mg/kg/injection, schedule: Q04DX003 (ip), vehicle: saline).
As for `NC(=S)c1cccc(C=Nc2ccccc2)n1`, the T/C was 106 % of control (dose: 12.5 mg/kg/injection, schedule: Q04DX003 (ip), vehicle: Klucel (hydroxypropylcellulose) (HPC)); 105 % of control (dose: 25.0 mg/kg/injection, schedule: Q04DX003 (ip), vehicle: Klucel (hydroxypropylcellulose) (HPC)); 97 % of control (dose: 50.0 mg/kg/injection, schedule: Q04DX003 (ip), vehicle: Klucel (hydroxypropylcellulose) (HPC)); 91 % of control (dose: 100.0 mg/kg/injection, schedule: Q04DX003 (ip), vehicle: Klucel (hydroxypropylcellulose) (HPC)).
As to `Clc1ncccc1-n1cccc1/C=N\N=C/c1cccn1-c1cccnc1Cl`, the T/C by setting is: under setting [1], 97 % of control; under setting [2], 89 % of control.
Turning to `O=C(O)c1cc2ccccc2c2c3c(ccc12)OCO3`, the T/C by setting is: under setting [1], 95 % of control; under setting [2], 100 % of control; under setting [3], 100 % of control.
With `CO`, the T/C by setting is: (dose: 0.5 % in 0.5 ml injection vol, schedule: Q01DX009 (ip), vehicle: water) 105 % of control; (dose: 1.0 % in 0.5 ml injection vol, schedule: Q01DX009 (ip), vehicle: water) 102 % of control; (dose: 2.0 % in 0.5 ml injection vol, schedule: Q01DX009 (ip), vehicle: water) 104 % of control; (dose: 4.0 % in 0.5 ml injection vol, schedule: Q01DX009 (ip), vehicle: water) 104 % of control; (dose: 8.0 % in 0.5 ml injection vol, schedule: Q01DX009 (ip), vehicle: water) 100 % of control and 107 % of control; (dose: 16.0 % in 0.5 ml injection vol, schedule: Q01DX009 (ip), vehicle: water) 94 % of control.
As to `Nc1nc(N)nc(Cc2ccccc2)n1`, the T/C is, setting by setting: under setting [8], 104 % of control; under setting [7], 93 % of control; under setting [9], 95 % of control.
